Test results taken from US11873298B2, “Compounds and uses thereof” (JANSSEN PHARMACEUTICA NV, priority 2017, dated 2024).

Key:
[1] = tested on: yeast strains expressing the human α-synuclein; experiment: Yeast α-synuclein toxicity rescue assay (OD600 growth); settings: 40 h; for EC50: read-out: α-Syn EC50; for Emax: read-out: α-Syn Emax
Ole1 = biological target: T1, Ole1 (Saccharomyces cerevisiae, UniProt P21147); experiment: Growth inhibition of yeast strain expressing Ole1 as sole desaturase; format: cell-based; settings: yeast strain expressing Ole1 as sole desaturase
T1 construct: expressed in transfected cells; host or cells: S. cerevisiae ole1Δ strain (W303 pdr1Δ pdr3Δ background), plasmid pRS316 with TDH3 promoter and CYC1 terminator
T1 sequence (P21147 1-510): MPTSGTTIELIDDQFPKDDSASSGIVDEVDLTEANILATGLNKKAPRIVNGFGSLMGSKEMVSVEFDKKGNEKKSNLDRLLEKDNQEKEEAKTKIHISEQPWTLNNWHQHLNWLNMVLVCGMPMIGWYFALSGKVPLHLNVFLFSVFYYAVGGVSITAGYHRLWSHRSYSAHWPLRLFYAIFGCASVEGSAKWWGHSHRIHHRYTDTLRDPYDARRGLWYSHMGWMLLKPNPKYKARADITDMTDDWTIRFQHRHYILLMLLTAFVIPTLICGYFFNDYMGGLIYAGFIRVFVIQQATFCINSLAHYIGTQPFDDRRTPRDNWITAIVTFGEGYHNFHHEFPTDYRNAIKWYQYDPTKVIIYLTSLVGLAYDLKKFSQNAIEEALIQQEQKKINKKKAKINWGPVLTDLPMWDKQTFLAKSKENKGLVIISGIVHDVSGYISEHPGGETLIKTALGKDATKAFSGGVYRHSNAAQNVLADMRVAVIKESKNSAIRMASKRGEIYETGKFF
In short: (§1)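 Plasmid-complemented ole1Δ yeast, drug-pump deleted (pdr1Δ pdr3Δ), depend solely on the introduced Ole1, SCD1 or SCD5 desaturase. Compounds are added from DMSO to cells in uracil-free galactose medium, 2× density 0.02, and OD600 is read after 24 h or 40 h respectively.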

SCD1 = biological target: T2, SCD1 (Homo sapiens, UniProt O00767); experiment: Growth inhibition of humanized yeast strain expressing SCD1 as sole desaturase; format: cell-based; settings: humanized yeast strain expressing SCD1
T2 construct: host or cells: S. cerevisiae ole1Δ strain (W303 pdr1Δ pdr3Δ background), plasmid pRS316 with TDH3 promoter and CYC1 terminator
T2 sequence (O00767 1-359): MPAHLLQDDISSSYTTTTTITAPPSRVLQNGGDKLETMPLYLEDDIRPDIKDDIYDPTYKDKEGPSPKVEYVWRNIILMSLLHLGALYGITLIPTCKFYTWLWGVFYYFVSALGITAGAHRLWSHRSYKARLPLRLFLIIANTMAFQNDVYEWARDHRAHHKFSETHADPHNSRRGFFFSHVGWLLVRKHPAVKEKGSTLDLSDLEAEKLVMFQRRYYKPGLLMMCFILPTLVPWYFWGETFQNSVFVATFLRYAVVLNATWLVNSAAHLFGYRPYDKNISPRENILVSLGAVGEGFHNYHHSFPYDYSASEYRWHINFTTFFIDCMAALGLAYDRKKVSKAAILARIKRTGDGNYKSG
In short: as §1

SCD5 = biological target: T3, SCD5 (Homo sapiens, UniProt Q86SK9); experiment: Growth inhibition of humanized yeast strain expressing SCD5 as sole desaturase; format: cell-based; settings: humanized yeast strain expressing SCD5
T3 construct: host or cells: S. cerevisiae ole1Δ strain (W303 pdr1Δ pdr3Δ background), plasmid pRS316 with TDH3 promoter and CYC1 terminator
T3 sequence (Q86SK9 1-330): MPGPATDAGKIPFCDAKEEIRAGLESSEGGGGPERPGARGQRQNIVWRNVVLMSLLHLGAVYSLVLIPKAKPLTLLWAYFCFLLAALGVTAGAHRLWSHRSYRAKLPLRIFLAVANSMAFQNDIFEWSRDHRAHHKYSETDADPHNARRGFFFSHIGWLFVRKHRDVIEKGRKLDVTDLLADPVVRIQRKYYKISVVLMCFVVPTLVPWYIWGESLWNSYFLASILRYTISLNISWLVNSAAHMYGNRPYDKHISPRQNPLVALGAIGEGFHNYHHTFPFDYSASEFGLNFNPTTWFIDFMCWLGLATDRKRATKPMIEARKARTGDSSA
In short: as §1

Compound | EC50 [1] [µM] | Emax [1] [%] | IC50 (Ole1) [µM] | OLE1 % Max Inhibition (Ole1) [%] | IC50 (SCD1) [µM] | SCD1 % Max Inhibition (SCD1) [%] | IC50 (SCD5) [µM] | SCD5 % Max Inhibition (SCD5) [%]
Cc1noc2cc(-c3noc(C4CCN(C(=O)C5CC(=O)N(c6ccccc6)C5)CC4)n3)ccc12 (centres unmarked) [Compound 136] | 4.08 | 67 | > 45 | 73.60 | > 45 | 34.33 | > 45 | 17.07
Cc1nn(C)c2cc(-c3noc(C4CCN(C(=O)C5CC(=O)N(c6ccccc6)C5)CC4)n3)cnc12 (centres unmarked) [Compound 138] | 1.28 | 353 | > 45 | 3.94 | 37.3 | 54.49 | > 45 | 4.57
COc1ccccc1-c1noc(C2CCN(C(=O)CNC(=O)c3ccc(C)c(C)c3)CC2)n1 [Compound 58] | 7.94 | 23 | > 45 | 92.35 | > 45 | 101.47 | > 45 | 66.93
Cc1nn(C)c2cc(-c3noc(N4CCN(C(=O)c5cc(-c6ccccc6)no5)CC4)n3)ccc12 [Compound 103] | 2.02 | 75 | > 45 | 5.27 | > 45 | 93.33 | > 45 | 68.60
O=C(NCC(=O)N1CCC(c2nc(-c3ccccn3)no2)CC1)c1ccccc1 [compound 78] | 14.6 | 38 | 38.3 |  | > 45 |  | > 45 | 
CCN1C(=O)COc2cc(-c3noc(C4CCN(C(=O)CNC(=O)c5ccccc5)CC4)n3)ccc21 [Compound 111] | 0.339 | 289 | > 45 | 38.26 | > 45 | 76.39 | > 45 | 32.73
Cn1c(=O)[nH]c2ccc(-c3noc(C4CCN(C(=O)C5CC(=O)N(c6ccccc6)C5)CC4)n3)cc21 (centres unmarked) [Compound 134] | 14 | 357 | > 45 | 93.94 | > 45 | 107.77 | > 45 | 98.55
Cc1ccc(-c2nc(C3CCN(C(=O)[C@@H]4CC(=O)N(c5ccc(C)c(C)c5)C4)CC3)no2)cc1 [compound 72] | 12.7 | 35 | > 45 |  | 27.3 |  | 33 | 
CCOc1ccc(-c2noc(C3CCN(C(=O)[C@H]4CN(c5ccccc5)C(=O)O4)CC3)n2)cc1OC [Compound 148] | 13.7 | 258 | > 45 | 99.90 | > 45 | 79.55 | > 45 | 86.53
Cc1nn(C)c2cc(-c3noc(C4CCN(C(=O)[C@@H]5CC(=O)N(c6ccccc6)C5)CC4)n3)ccc12 [compound 91] | 0.107 | 452 | > 45 |  | > 45 |  | > 45 | 
Cc1nn(C)c2cc(-c3noc(N4CCN(C(=O)CNC(=O)c5ccccc5)CC4)n3)ccc12 [compound 102] | 0.284 | 411 | > 45 |  | > 45 |  | > 45 | 
Cc1noc2cc(-c3noc(C4CCN(C(=O)CNC(=O)c5ccccc5)CC4)n3)ccc12 [Compound 135] | 0.593 | 144 | > 45 | 99.53 | > 45 | 92.42 | > 45 | 91.64
Cc1ccc(-c2noc(C3CCN(C(=O)C4CC(=O)N(c5ccc(C)c(C)c5)C4)CC3)n2)cc1 (centres unmarked) [compound 2] | 8.57 | 80 | > 45 |  | > 45 |  | > 45 | 
